The test system of one test is trypsin. In words: Inhibitory activity for trypsin. Type of test: biochemical.
The target in the next test is T1, human thrombin (Homo sapiens, UniProt P00734).
T1 construct: purchased Sigma T-6759
In words: Inhibitory activity for thrombin (chromogenic substrate hydrolysis, 405 nm). Type of test: biochemical. As to conditions: for Selectivity (trypsin/thrombin): IC50 for trypsin divided by IC50 for thrombin; for IC50: human thrombin, 20 min, pH 8.0, N-benzoyl-Phe-Val-Arg-p-nitroanilide. As for the experimental part:
20 μl of each compound of the present invention was dissolved in 50% methanol in various concentrations and then added to each well of a microplate, to each of which 160 μl of the reaction medium containing 125 mM NaCl, 50 mM Tris-HCl (pH 8.0) and 2 mM synthetic substrate (N-benzoyl-Phe-Val-Arg-p-nitroanilide, Sigma B-7632) were added. 20 μl of human thrombin solution (5 units/ml, Sigma T-6759, manufactured by Sigma Co.) containing 0.1% bovine serum albumin was added to each well to initiate the enzymatic reaction. After 20 minutes, the hydrolysis of substrate was determined by measuring the absorbance at 405 nm. […] The selectivity index was calculated by dividing the IC50 value for trypsin by the IC50 value for thrombin. The thrombin inhibitory activity and the trypsin inhibitory activity for the compound of the present invention are shown in the following Table 2.

Molecule `C=CC(=O)N1CCC[C@@H]1C(=O)N1CCC[C@H]1CCc1cc2ccc(C(=N)N)cc2n1CC` [Compound 182, 1-ethyl-2-[2-[(S)-1-[((R)-1-prop-2-enoyl-pyrrolidin-2-yl)carbonyl]pyrrolidin-2-yl]ethyl]indole-6-carboxamidine] came in with a 50% inhibitory concentration (IC50) in the test with trypsin of 304 nM. For the same molecule, at human thrombin, the “Selectivity (trypsin/thrombin)” value is reported as 30.0 and the concentration for half-maximal inhibition (IC50) is 10.1 nM. Taken in the same sequence, the figures for `CCn1c(CC[C@@H]2CCCN2C(=O)CN(C2CC2)S(C)(=O)=O)cc2ccc(C(=N)N)cc21` [Compound 58, 1-ethyl-2-[2-[(S)-1-[2-[cyclopropyl(methylsulfonyl)amino]acetyl]pyrrolidin-2-yl]ethyl]indole-6-carboxamidine] were 52.2 nM, 17.4 and 3 nM. Regarding `CCn1c(CC[C@@H]2CCCN2C(=O)[C@H]2CCCN2C(=O)[C@H](C)N)cc2ccc(C(=N)N)cc21` [Compound 143, 1-ethyl-2-[2-[(S)-1-[[(R)-1-((S)-2-aminopropanoyl)pyrrolidin-2-yl]carbonyl]pyrrolidin-2-yl]ethyl]indole-6-carboxamidine], in the test on trypsin, the IC50 worked out at 410 nM. On human thrombin, the “Selectivity (trypsin/thrombin)” value was determined as 75.2 and half-maximal inhibition (IC50) required 5.46 nM. On the same counts, the results for `CCn1c(CC[C@@H]2CCCN2C(=O)[C@H]2CCCN2C(=O)CCC(=O)O)cc2ccc(C(=N)N)cc21` [Compound 177] are 500 nM, 26.6 and 18.8 nM. For the molecule `CCn1c(CC[C@@H]2CCCN2C(=O)C(c2ccccc2)C2CCCC2)cc2ccc(C(=N)N)cc21` (stereo partly drawn) [Compound 30, 1-ethyl-2-[2-[(S)-1-(2-cyclopentyl-2-phenylacetyl)pyrrolidin-2-yl]ethyl]indole-6-carboxamidine], the IC50 with trypsin was 420 nM. Further, at human thrombin, the “Selectivity (trypsin/thrombin)” value is on record as 46.6 and 9.01 nM corresponded to half-maximal inhibition (IC50). Taken in the same sequence, the figures for `CCn1c(CC[C@@H]2CCCN2C(=O)[C@H]2CCCN2S(C)(=O)=O)cc2ccc(C(=N)N)cc21` [Compound 184, 1-ethyl-2-[2-[(S)-1-[[(R)-1-(methanesulfonyl)pyrrolidin-2-yl]carbonyl]pyrrolidin-2-yl]ethyl]indole-6-carboxamidine] were 551 nM, 57.9 and 9.51 nM.

Turning to `CCn1c(CC[C@@H]2CCCN2C(=O)[C@H]2CCCN2C2CCOC2=O)cc2ccc(C(=N)N)cc21` (stereo partly drawn) [Compound 125, 1-ethyl-2-[2-[(S)-1-[[(R)-1-(2-oxo-3-oxolanyl)pyrrolidin-2-yl]carbonyl]pyrrolidin-2-yl]ethyl]indole-6-carboxamidine], in the test on trypsin, inhibition was half-maximal at 775 nM (IC50). Moreover, at human thrombin, the “Selectivity (trypsin/thrombin)” value is 34.7 and the IC50 was determined as 22.3 nM. On to `CCn1c(CCC2CCCN2C(=O)C2CCCN2C(=O)CC(NS(C)(=O)=O)C(N)=O)cc2ccc(C(=N)N)cc21` [Compound 162, 1-ethyl-2-[2-[(S)-1-[[1-[(R)-1-[3-carbamoyl-(S)-3-[(methanesulfonyl)amino]propanoyl]pyrrolidin-2-yl]carbonyl]pyrrolidin-2-yl]ethyl]indole-6-carboxamidine], for which the IC50 was 329 nM in the test on trypsin and 7.3 nM against human thrombin. In addition, the “Selectivity (trypsin/thrombin)” value at human thrombin stood at 45.0.

Molecule `CCn1c(CC[C@@H]2CCCN2C(=O)[C@H]2CCCN2C(=O)C2CCCNC2)cc2ccc(C(=N)N)cc21` (stereo partly drawn) [Compound 168, 1-ethyl-2-[2-[(S)-1-[[(R)-1-(3-piperidinylcarbonyl)pyrrolidin-2-yl]carbonyl]pyrrolidin-2-yl]ethyl]indole-6-carboxamidine] yielded an IC50 at human thrombin of 31.6 nM. That is a double-digit nanomolar value.

Take `CCn1c(CC[C@H]2C[C@H](C)CN2C(=O)[C@H]2CCCN2CC(=O)O)cc2ccc(C(=N)N)cc21` [Compound 98, 2-[(R)-2-[[(S)-2-[2-(6-amidino-1-ethylindol-2-yl)ethyl]-(S)-4-methylpyrrolidinyl]carbonyl]pyrrolidinyl]acetic acid]: the IC50 on human thrombin was 20.3 nM. Turning to `CCn1c(CC[C@@H]2CCCN2C(=O)[C@H]2CCCN2C(=O)[C@@H](N)C(C)C)cc2ccc(C(=N)N)cc21` [Compound 145, 1-ethyl-2-[2-[(S)-1-[[(R)-1-((S)-2-amino-3-methylbutanoyl)pyrrolidin-2-yl]carbonyl]pyrrolidin-2-yl]-ethyl]indole-6-carboxamidine], at human thrombin, the “Selectivity (trypsin/thrombin)” value was 20.1 and half-maximal inhibition (IC50) was put at 26.1 nM. Taken in the same sequence, the figures for `CCOC(=O)CN(CC(=O)N1CCC[C@H]1CCc1cc2ccc(C(=N)N)cc2n1CC)C1CC1` [Compound 62, ethyl 2-[[2-[(S)-2-[2-(6-amidino-1-ethylindol-2-yl)ethyl]pyrrolidinyl]-2-oxoethyl]cyclopropylamino]acetate] were 49.7 and 11.7 nM. Take `CCn1c(CC[C@@H]2CCCN2C(=O)[C@H]2CCCN2C(=O)C[C@H](NS(C)(=O)=O)C(=O)O)cc2ccc(C(=N)N)cc21` [Compound 163, 4-[(R)-2-[[(S)-2-[2-(6-amidino-1-ethylindol-2-yl)ethyl]pyrrolidinyl]carbonyl]pyrrolidinyl]-(S)-2-[(methanesulfonyl)amino]-4-oxobutanoic acid]: at human thrombin, the “Selectivity (trypsin/thrombin)” value worked out at 25.6 and inhibition was half-maximal at 19.4 nM (IC50). In turn, `CCn1c(CC[C@@H]2CCCN2C(=O)[C@H]2CCCN2C(=O)CC(N)=O)cc2ccc(C(=N)N)cc21` [Compound 175, 1-ethyl-2-[2-[(S)-1-[[(R)-1-(2-carbamoylacetyl)pyrrolidin-2-yl]carbonyl]pyrrolidin-2-yl]ethyl]indole-6-carboxamidine] showed an IC50 on human thrombin of 9.92 nM.

For the molecule `CCOC(=O)[C@H](C)NC(=O)CN1CCC[C@@H]1C(=O)N1CCC[C@H]1CCc1cc2ccc(C(=N)N)cc2n1CC` [Compound 116, ethyl (s)-2-[2-[(R)-2-[[(S)-2-[2-(6-amidino-1-ethylindol-2-yl)ethyl]pyrrolidinyl]carbonyl]pyrrolidinyl]-acetylamino]propanoate], at human thrombin, the “Selectivity (trypsin/thrombin)” value was 27.4 and inhibition was half-maximal at 31.7 nM (IC50). As to `CCn1c(CC[C@@H]2CCCN2C(=O)[C@H]2CCCN2CCCCC(=O)O)cc2ccc(C(=N)N)cc21` [Compound 129, 5-[(R)-2-[[(S)-2-[2-(6-amidino-1-ethylindol-2-yl)-ethyl]pyrrolidinyl]carbonyl]pyrrolidinyl]pentanoic acid], at human thrombin, the “Selectivity (trypsin/thrombin)” value is on record as 10.6 and inhibition was half-maximal at 13.1 nM (IC50). In the case of `CCn1c(CC[C@@H]2CCCN2C(=O)[C@H]2CCCN2C(=O)CC(C)N)cc2ccc(C(=N)N)cc21` (stereo partly drawn) [Compound 157, 1-ethyl-2-[2-[(S)-1-[[(R)-1-(3-amino-butanoyl)pyrrolidin-2-yl]carbonyl]pyrrolidin-2-yl]ethyl]indole-6-carboxamidine], the midpoint of inhibition at human thrombin, the IC50, lay at 26.9 nM. Consider `CCOC(=O)C(c1ccccc1)N1CCC[C@@H]1C(=O)N1CCC[C@H]1CCc1cc2ccc(C(=N)N)cc2n1CC` (stereo partly drawn) [Compound 112, ethyl-2-[(R)-2-[[(S)-2-[2-(6-amidino-1-ethylindol-2-yl)ethyl]pyrrolidinyl]carbonyl]pyrrolidinyl]-2-phenylacetate], for which 29.2 nM corresponded to half-maximal inhibition against human thrombin (IC50).

Turning to `CCn1c(CC[C@@H]2CCCN2C(=O)[C@H]2CCCN2CCCCCC(=O)O)cc2ccc(C(=N)N)cc21` [Compound 131, 6-[(R)-2-[[(S)-2-[2-(6-amidino-1-ethylindol-2-yl)-ethyl]pyrrolidinyl]carbonyl]pyrrolidinyl]hexanoic acid], at human thrombin, the “Selectivity (trypsin/thrombin)” value worked out at 14.7 and the IC50 was 9.29 nM. As to `CCn1c(CC[C@@H]2CCCN2C(=O)Cc2ccccc2C(=O)O)cc2ccc(C(=N)N)cc21` [Compound 24, 2-[2-[(S)-2-[2-(6-amidino-1-ethylindol-2-yl)ethyl]pyrrolidinyl]-2-oxoethyl]benzoic acid], on human thrombin, the “Selectivity (trypsin/thrombin)” value stood at 83.6 and the IC50 was found to be 8.45 nM.

Regarding `CCn1c(CC[C@@H]2CCCN2C(=O)[C@H]2CCCN2C(=O)C(C)CN)cc2ccc(C(=N)N)cc21` (stereo partly drawn) [Compound 156, 1-ethyl-2-[2-[(S)-1-[[(R)-1-(3-amino-2-methylpropanoyl)pyrrolidin-2-yl]carbonyl]pyrrolidin-2-yl]ethyl]indole-6-carboxamidine], the IC50 against human thrombin was 28.6 nM. Take `CCOC(=O)C(C)N1CCC[C@@H]1C(=O)N1CCC[C@H]1CCc1cc2ccc(C(=N)N)cc2n1CC` (stereo partly drawn) [Compound 109, ethyl-2-[(R)-2-[[(S)-2-[2-(6-amidino-1-ethylindol-2-yl)ethyl]pyrrolidinyl]carbonyl]pyrrolidinyl]propionate]: half-maximal inhibition on human thrombin (IC50) required 31.9 nM. On to `CCn1c(CC[C@@H]2CCCN2C(=O)C(C)N(CC(=O)O)C2CC2)cc2ccc(C(=N)N)cc21` (stereo partly drawn) [Compound 65, 2-[[2-[(S)-2-[2-(6-amidino-1-ethylindol-2-yl)ethyl]pyrrolidinyl]-1-methyl-2-oxoethyl]cyclopylamino]acetic acid], for which, at human thrombin, the IC50 is 22.1 nM. On to `CCOC(=O)CC(NC1CC1)C(=O)N1CCC[C@H]1CCc1cc2ccc(C(=N)N)cc2n1CC` (stereo partly drawn) [Compound 72, ethyl 4-[(S)-2-[2-(6-amidino-1-ethylindol-2-yl)ethyl]pyrrolidinyl]-3-cyclopropylamino-4-oxobutanoate], for which, at human thrombin, the “Selectivity (trypsin/thrombin)” value amounted to 13.6 and the midpoint of inhibition, the IC50, lay at 9.4 nM. As to `CCn1c(CC[C@@H]2CCCN2C(=O)[C@H](NCC(=O)O)c2ccccc2)cc2ccc(C(=N)N)cc21` [Compound 40, 2-[[(R)-2-[2-(S)-2-[2-(6-amidino-1-ethylindol-2-yl)ethyl]pyrrolidinyl]-2-oxo-1-phenylethyl]amino]acetic acid], on human thrombin, the midpoint of inhibition, the IC50, lay at 7.95 nM.

Molecule `Cn1c(CC[C@@H]2CCCN2Cc2c(C(N)=O)sc3ccccc23)cc2ccc(C(=N)N)cc21` [Compound 9] came in with an IC50 against human thrombin of 33.9 nM. Against the preceding molecule, the IC50 is about 4.3-fold higher.

By IC50 is commonly meant the point on the concentration scale where inhibition reaches its midpoint. A lower IC50 goes with greater potency in that assay.
